Results published in US20240368655A1, “CLICK HANDLE-MODIFIED DEOXY-FLUOROARABINO NUCLEIC ACID AS A SYNTHETIC GENETIC POLYMER CAPABLE OF POST-POLYMERIZATION FUNCTIONALIZATION” (THE TRUSTEES OF BOSTON COLLEGE, priority 2023, published 2024).
“Also recorded” adds a separate entry of the source.

Target: T1, Thermococcus gorgonarius (Tgo) DNA polymerase (Thermococcus gorgonarius, UniProt P56689)
T1 construct: made in house
T1 sequence (P56689 1-773): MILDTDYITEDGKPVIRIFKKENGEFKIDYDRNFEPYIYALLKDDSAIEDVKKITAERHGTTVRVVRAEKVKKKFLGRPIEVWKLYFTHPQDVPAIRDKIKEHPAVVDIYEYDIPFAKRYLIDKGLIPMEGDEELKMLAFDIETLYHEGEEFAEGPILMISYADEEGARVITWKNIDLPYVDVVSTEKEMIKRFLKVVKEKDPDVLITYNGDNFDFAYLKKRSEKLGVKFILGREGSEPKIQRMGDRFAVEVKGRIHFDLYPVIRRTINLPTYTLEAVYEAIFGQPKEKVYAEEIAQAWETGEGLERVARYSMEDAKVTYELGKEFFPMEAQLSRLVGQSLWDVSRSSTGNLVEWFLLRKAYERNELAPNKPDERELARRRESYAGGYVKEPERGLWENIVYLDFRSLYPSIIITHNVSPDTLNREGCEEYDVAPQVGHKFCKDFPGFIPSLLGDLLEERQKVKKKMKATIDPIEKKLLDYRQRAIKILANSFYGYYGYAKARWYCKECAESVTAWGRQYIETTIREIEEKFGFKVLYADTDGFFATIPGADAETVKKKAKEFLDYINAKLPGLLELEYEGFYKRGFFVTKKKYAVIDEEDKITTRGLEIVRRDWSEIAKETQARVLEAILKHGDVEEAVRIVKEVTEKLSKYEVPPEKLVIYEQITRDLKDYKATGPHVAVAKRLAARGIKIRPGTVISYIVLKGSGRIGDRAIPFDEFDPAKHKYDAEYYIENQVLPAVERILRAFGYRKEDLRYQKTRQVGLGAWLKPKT
Assay: DNA-templated primer extension by Tgo DNA polymerase
Format: biochemical
Conditions: with FANA ATP, CTP, GTP, DNA primer-template complex
Method: It was hypothesized that Thermococcus gorgonarius (Tgo) DNA polymerase could tolerate the 5-1,7-octadiyne modification on uracil and that the enzyme could incorporate FANA nucleotides. To investigate the hypothesis, a primer extension experiment was performed, in which a DNA primer-template complex was enzymatically extended by Tgo DNA polymerase using commercially available FANA nucleotide triphosphates (A, C, and G) as well as C8-alkyne-FANA UTP 11. The DNA template was prepared to contain a 40-nucleotide (nt) random region to avoid sequence bias, as well as a 24-nt poly-AAC tail at the 3′-end, which would not be transcribed, to provide a mobility difference between extension product (76 nt) and DNA template (100 nt) in denaturing polyacrylamide gel electrophoresis (PAGE). The DNA primer was labeled by a 5′-Cy5 fluorophore to allow easy detection of the extended product. A control experiment in which all FANA nucleotide triphosphates comprising natural bases (A, C, G and T) was also conducted to determine the impact of the 5-1,7-octadiyne modification of uracil on the primer extension reactivity. Tgo DNA polymerase was added in various amounts to confirm that the generation of the extended products was mediated by the Tgo DNA polymerase in a dose-dependent fashion. […]

Substance: 5-octa-1,7-diynyluracil 2′-deoxy-2′-fluoroarabino triphosphate [compound 11]
- recognition and incorporation as substrate in primer extension: produced the full-length products in a polymerase dose-dependent fashion
- recognition and incorporation as substrate in primer extension (listed as C8-alkyne-FANA UTP): successfully served as a substrate; also recorded: quantitatively incorporated
